Measurements from publication PMC9231222 (Viruses, 2022).
“Also recorded” adds a separate entry of the source.

How the values were obtained:
BVDV [1] = assay: Antiviral assay: inhibition of BVDV-induced cytopathogenicity in MDBK cells; assay type: cell-based; conditions: Bovine viral diarrhea virus isolates and strains, in Bos taurus, 72 h, read-out: BVDV EC50
[2] = Cytotoxicity assay (MTT) in mock-infected MDBK cells; assay type: cell-based; conditions: cattle (Bos taurus); concentration reducing viability of mock-infected MDBK cells by 50%, MTT method
BVDV [3] = assay type: cell-based, Bovine Viral Diarrhoea Virus (BVDV); conditions: BVDV incubated with compound at 4 °C for 1 h, then used to infect cells
BVDV [4] = assay: Time of drug addition assay in BVDV-infected MDBK cells (plaque reduction titer); assay type: cell-based, Bovine Viral Diarrhoea Virus (BVDV); conditions: along the viral replication cycle (between 2 and 14 h post-infection)

SMILES	melting point	EC50 (BVDV [1])	CC50 [2]	virucidal activity (BVDV [3])	antiviral activity, time of drug addition (BVDV [4])
COc1cc(C(=O)Nc2ccc(-c3nc4cc(F)c(F)cc4[nH]3)cc2)cc(OC)c1OC [Compound 5c, N-(4-(5,6-Difluoro-1H-benzo[d]imidazol-2-yl)phenyl)-3,4,5-trimethoxybenzamide]	285 to 287 °C	1.4 µM	> 100 µM	–	–
Cc1ccc2[nH]c(-c3ccc(NC(=O)c4ccc(Cl)cc4)cc3)nc2c1 [Compound 6e, N-(4-(5-Methyl-1H-benzo[d]imidazol-2-yl)phenyl)-4-chlorobenzamide]	> 300 °C	> 100 µM	> 100 µM	–	–
COc1cc(C(=O)Nc2ccc(-c3nc4cc(F)ccc4[nH]3)cc2)cc(OC)c1OC [Compound 4c, N-(4-(5-Fluoro-1H-benzo[d]imidazol-2-yl)phenyl)-3,4,5-trimethoxybenzamide]	171.8 °C	41 µM	> 100 µM	–	–
O=C(Nc1ccc(-c2nc3cc(F)c(F)cc3[nH]2)cc1)c1ccc([N+](=O)[O-])cc1 [Compound 5d, N-(4-(5,6-Difluoro-1H-benzo[d]imidazol-2-yl)phenyl)-4-nitrobenzamide]	> 300 °C	3.6 µM	> 100 µM	–	–
O=C(Nc1ccc(-c2nc3ccccc3[nH]2)cc1)c1ccc([N+](=O)[O-])cc1 [Compound 1d, N-(4-(1H-Benzo[d]imidazol-2-yl)phenyl)-4-nitrobenzamide]	> 300 °C	> 100 µM	> 100 µM	–	–
O=C(Nc1ccc(-c2nc3cc(Cl)ccc3[nH]2)cc1)c1ccc([N+](=O)[O-])cc1 [Compound 2d, N-(4-(5-Chloro-1H-benzo[d]imidazol-2-yl)phenyl)-4-nitrobenzamide]	> 300 °C	1.9 µM	> 100 µM	–	–
COc1cc(C(=O)Nc2ccc(-c3nc4cc(C)ccc4[nH]3)cc2)cc(OC)c1OC [Compound 6c, N-(4-(5-Methyl-1H-benzo[d]imidazol-2-yl)phenyl)-3,4,5-trimethoxybenzamide]	–	0.23 µM	> 100 µM	almost comparable to the untreated but infected ones	–
C[C@@]1(O)[C@H](O)[C@@H](CO)O[C@H]1n1cnc2c(=O)[nH]c(N)nc21 [NM 108, 2′-C-methylguanosine, reference compound]	–	1.5 µM	> 100 µM	–	–
O=C(Nc1ccc(-c2nc3cc(F)c(F)cc3[nH]2)cc1)c1ccc(Cl)cc1 [Compound 5e, N-(4-(5,6-Difluoro-1H-benzo[d]imidazol-2-yl)phenyl)-4-chlorobenzamide]	> 300 °C	> 100 µM	> 100 µM	–	–
O=C(Nc1ccc(-c2nc3cc(Cl)c(Cl)cc3[nH]2)cc1)c1ccc(Cl)cc1 [Compound 3e, N-(4-(5,6-Dichloro-1H-benzo[d]imidazol-2-yl)phenyl)-4-chlorobenzamide]	161 to 162 °C	> 60 µM	60 µM	–	–
O=C(Nc1ccc(-c2nc3cc(F)ccc3[nH]2)cc1)c1ccc(Cl)cc1 [Compound 4e, N-(4-(5-Fluoro-1H-benzo[d]imidazol-2-yl)phenyl)-4-chlorobenzamide]	138.6 °C	> 100 µM	> 100 µM	–	–
COc1cc(C(=O)Nc2ccc(-c3nc4cc(Cl)ccc4[nH]3)cc2)cc(OC)c1OC [Compound 2c, N-(4-(5-Chloro-1H-benzo[d]imidazol-2-yl)phenyl)-3,4,5-trimethoxybenzamide]	286 to 287 °C	0.09 µM	45 µM	–	consistent antiviral activity along the viral replication cycle; also recorded: detectable activity
COc1cc(C(=O)Nc2ccc(-c3nc4cc(C)c(C)cc4[nH]3)cc2)cc(OC)c1OC [Compound 7c, N-(4-(5,6-Dimethyl-1H-benzo[d]imidazol-2-yl)phenyl)-3,4,5-trimethoxybenzamide]	272 to 274 °C	0.3 µM	> 100 µM	almost comparable to the untreated but infected ones	–
NC(=O)c1ncn([C@@H]2O[C@H](CO)[C@@H](O)[C@H]2O)n1 [Ribavirin, ribavirin, reference compound]	–	18 µM	> 100 µM	–	–
O=C(Nc1ccc(-c2nc3cc(Cl)ccc3[nH]2)cc1)c1ccc(Cl)cc1 [Compound 2e, N-(4-(5-Chloro-1H-benzo[d]imidazol-2-yl)phenyl)-4-chlorobenzamide]	> 300 °C	> 100 µM	> 100 µM	–	–
Cc1ccc2nc(-c3ccc(NC(=O)c4ccc([N+](=O)[O-])cc4)cc3)[nH]c2c1 [Compound 6d, N-(4-(5-Methyl-1H-benzo[d]imidazol-2-yl)phenyl)-4-nitrobenzamide]	–	> 100 µM	> 100 µM	–	–
O=C(Nc1ccc(-c2nc3cc(F)ccc3[nH]2)cc1)c1ccc([N+](=O)[O-])cc1 [Compound 4d, N-(4-(5-Fluoro-1H-benzo[d]imidazol-2-yl)phenyl)-4-nitrobenzamide]	> 300 °C	7.9 µM	> 100 µM	–	–
COc1cc(C(=O)Nc2ccc(-c3nc4ccccc4[nH]3)cc2)cc(OC)c1OC [Compound 1c, N-(4-(1H-Benzo[d]imidazol-2-yl)phenyl)-3,4,5-trimethoxybenzamide]	–	2.2 µM	28.5 µM	–	–
Cc1cc2nc(-c3ccc(NC(=O)c4ccc(Cl)cc4)cc3)[nH]c2cc1C [Compound 7e, N-(4-(5,6-Dimethyl-1H-benzo[d]imidazol-2-yl)phenyl)-4-chlorobenzamide]	> 300 °C	> 100 µM	> 100 µM	–	–
O=C(Nc1ccc(-c2nc3cc(Cl)c(Cl)cc3[nH]2)cc1)c1ccc([N+](=O)[O-])cc1 [Compound 3d, N-(4-(5,6-Dichloro-1H-benzo[d]imidazol-2-yl)phenyl)-4-nitrobenzamide]	> 300 °C	53 µM	> 100 µM	–	–
O=C(Nc1ccc(-c2nc3ccccc3[nH]2)cc1)c1ccc(Cl)cc1 [Compound 1e, N-(4-(1H-Benzo[d]imidazol-2-yl)phenyl)-4-chlorobenzamide]	170.5 °C	> 100 µM	> 100 µM	–	–
Cc1cc2nc(-c3ccc(NC(=O)c4ccc([N+](=O)[O-])cc4)cc3)[nH]c2cc1C [Compound 7d, N-(4-(5,6-Dimethyl-1H-benzo[d]imidazol-2-yl)phenyl)-4-nitrobenzamide]	> 300 °C	> 100 µM	> 100 µM	–	–
COc1cc(C(=O)Nc2ccc(-c3nc4cc(Cl)c(Cl)cc4[nH]3)cc2)cc(OC)c1OC [Compound 3c, N-(4-(5,6-Dichloro-1H-benzo[d]imidazol-2-yl)phenyl)-3,4,5-trimethoxybenzamide]	150.6 °C	1.3 µM	28 µM	–	–
